From patent publication US10233186B2, “Inhibitors of activin receptor-like kinase” (BLUEPRINT MEDICINES CORPORATION, priority 2016, dated 2019)

Target: T1, ALK2 R206H (GST-tagged mutant ALK2) (Homo sapiens, UniProt Q04771, R206H)
T1 construct: purchased Carna Bioscience or ThermoFisher 09-148 or PV6232
T1 sequence (Q04771 21-509 R206H): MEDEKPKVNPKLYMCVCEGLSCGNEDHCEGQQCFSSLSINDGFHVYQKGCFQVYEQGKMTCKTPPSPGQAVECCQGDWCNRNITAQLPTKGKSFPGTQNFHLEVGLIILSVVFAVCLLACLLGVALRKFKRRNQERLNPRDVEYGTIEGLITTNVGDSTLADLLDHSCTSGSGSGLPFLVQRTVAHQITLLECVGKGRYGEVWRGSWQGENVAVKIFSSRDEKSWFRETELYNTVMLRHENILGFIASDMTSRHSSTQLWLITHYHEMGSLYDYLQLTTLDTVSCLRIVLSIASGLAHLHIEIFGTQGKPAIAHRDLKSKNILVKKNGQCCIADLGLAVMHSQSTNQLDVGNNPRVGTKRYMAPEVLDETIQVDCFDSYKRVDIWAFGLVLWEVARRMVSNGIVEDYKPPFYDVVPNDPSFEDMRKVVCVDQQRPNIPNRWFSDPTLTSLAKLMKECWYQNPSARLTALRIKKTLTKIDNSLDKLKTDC
Experiment: ALK binding assay (LANTHASCREEN TR-FRET competitive binding, displacement of Kinase Tracer 178)
Conditions: ALK2 R206H, LANTHASCREEN TR-FRET competitive binding; read-out: Binding Assay (IC50)
Description: Binding assays were conducted using the LANTHASCREEN® technology (ThermoFisher Scientific). LANTHASCREEN® is a competitive binding, displacement assay where the assumed steady state occupancy of the binding site is measured using a time-resolved, fluorescence energy transfer (TR-FRET) readout between a fluorescent tracer and Europium (Eu)-tagged antibody specific for the kinase or expression tag (e.g. GST) of interest. Displacement of the tracer by a compound of the disclosure reduces, and is directly proportional to, the TR-FRET between the tracer and the antibody. Tracer was used at a concentration equal to or near to its Kd for the kinase.
In all cases, the kinase (2-5 nM) was mixed with Eu-tagged antibody (10 nM) mix and tracer (50 nM) were incubated with test compound titrations prepared in 100% DMSO (1% DMSO final) for 30 minutes at room temperature. All reagents and compounds were dissolved in Kinase Buffer A (ThermoFisher) to achieve the final concentration. […] This readout was normalized to 0% and 100% inhibited control wells, plotted against inhibitor concentration, and fitted to a 4-parameter log dose response curve.
Blank values in the table indicate that the particular compound was not tested in this assay.

Row | SMILES | IC50 [nM]
1 | CCOC(=O)N1CCN(c2ccnn3cc(-c4ccc([C@]5(C)CCCN5C(C)C)cc4)cc23)CC1 [Compound 535] | < 10
2 | NC(CO)c1ccc(-c2cc3c(N4CCN(C(=O)C5CC5)CC4)ccnn3c2)c(F)c1 (centres unmarked) [Compound 759] | < 10
3 | CCOC(=O)N1CCN(c2ccnn3cc(-c4ccc(C5=CCN(C(C)C)CC5)cc4F)cc23)CC1 [Compound 602] | < 10
4 | CC(C)N1CCN(c2cnc(-c3cc4c(N5CCN(C(=O)C6CC6)CC5)ccnn4c3)cn2)CC1 [Compound 529] | < 10
5 | CC(C)N1CCC(c2ccc(-c3cc4c(N5CCN(C(=O)NCC(F)F)CC5)ccnn4c3)cc2)CC1 [Compound 822] | 10 to 50
6 | O=C(C1CC1)N1CCN(c2ccnn3cc(-c4ccc(C5(C(=O)O)CCNCC5)cc4)cc23)CC1 [Compound 781] | 10 to 50
7 | CC(C)N1CCC(c2ccc(-c3cc4c(N5CCN(C(=O)C6CC(C#N)C6)CC5)ccnn4c3)cc2)CC1 (centres unmarked) [Compound 405] | < 10
8 | NCC(O)c1ccc(-c2cc3c(N4CCN(C(=O)C5CC5)CC4)ccnn3c2)cc1 (centres unmarked) [Compound 751] | < 10
9 | CC(C)N1CCC(c2ccc(-c3cc4c(N5CCN(C(=O)C6CC6)CC5)ccnn4c3)c(F)c2)CC1 [Compound 584] | < 10
10 | CCN1CCN(c2ccc(-c3cc4c(N5CCN(C(=O)C6(c7nccs7)CC6)CC5)ccnn4c3)cc2)CC1 [Compound 440] | > 50
11 | CCOC1(c2ccc(-c3cc4c(N5CCN(C(=O)NC(C)C)CC5)ccnn4c3)nc2)CCN(C[C@@H](C)F)CC1 [Compound 862] | < 10
12 | O=C(C1CC1)N1CCN(c2ccnn3cc(-c4ccc(OCC5CCNC5)cc4)cc23)CC1 (centres unmarked) [Compound 166] | < 10
13 | COCNC(=O)N1CCN(c2ccnn3cc(-c4ccc(C5CCN(C(C)C)CC5)cc4)cc23)CC1 [Compound 590] | < 10
14 | COC1(c2ccc(-c3cc4c(N5CCN(C(=O)C6CC(C#N)C6)CC5)ccnn4c3)cc2)CCCN(C(C)C)C1 (centres unmarked) [Compound 730] | < 10
15 | CCN1CC2CN(c3ccnn4cc(-c5ccc(N6CCNCC6)cc5)cc34)CCN2C1=O (centres unmarked) [Compound 171] | 10 to 50
16 | CCN1CCC(n2ccc(-c3cc4c(N5CCN(C(=O)C6CC6)CC5)ccnn4c3)n2)C1 (centres unmarked) [Compound 138] | 10 to 50
17 | CC(C)N1CCC(c2ccc(-c3cc4c(N5CC6CC(C5)N6C(=O)C5CC5)ccnn4c3)cc2)CC1 [Compound 306] | 10 to 50
18 | O=C(C1CC1)N1CCN(c2ccnn3cc(-c4c(F)cc(N5CCNCC5)cc4F)cc23)CC1 [Compound 239] | < 10
19 | O=C(C1CC1)N1CCN(c2ccnn3cc(-c4ccc(Br)cc4)cc23)CC1 [Compound 119] | > 50
20 | CCN1CCC[C@@H](c2ccc(-c3cc4c(N5CCN(C(=O)C6CC6)CC5)ccnn4c3)cc2)C1 [Compound 206] | < 10
21 | O=C(C1CC1)N1CCN(c2ccnn3cc(-c4ccc(C5CCOCC5)cc4)cc23)CC1 [Compound 126] | 10 to 50
22 | CC(C)N1CC=C(c2ccc(-c3cc4c(N5CCN(C(=O)C6CC6)CC5)ccnn4c3)c(F)c2)CC1 [Compound 571] | < 10
23 | CCN1CCC1COc1ccc(-c2cc3c(N4CCN(C(=O)C5CC5)CC4)ccnn3c2)cc1 (centres unmarked) [Compound 218] | 10 to 50
24 | CCN1CCN(c2ccc(-c3cc4c(N5CCN(C(=O)[C@@H]6C[C@@H]6F)CC5)ccnn4c3)cc2)CC1 [Compound 291] | 10 to 50
25 | CCN1CCC(c2ccc(-c3cc4c(N5CCN(C(=O)C6CC6C6CCC6)CC5)ccnn4c3)cc2)C1 (centres unmarked) [Compound 372] | < 10
26 | CC(C)N1CCCC(O)(c2ccc(-c3cc4c(N5CCN(C(=O)C6CC(C#N)C6)CC5)ccnn4c3)cc2)C1 (centres unmarked) [Compound 707] | < 10
27 | O=C(C1CC1)N1CCN(c2ccnn3cc(-c4ccn(C5CCNC5)n4)cc23)CC1 (centres unmarked) [Compound 105] | 10 to 50
28 | CC(C)N1C[C@H](c2ccc(-c3cc4c(N5CCN(C(=O)C6CC6)CC5)ccnn4c3)cc2)C[C@H]1C [Compound 506] | 10 to 50
29 | CCOC(=O)N1CCN(c2ccnn3cc(-c4ccc(C5CCN(C(C)C)CC5)cc4F)cc23)CC1 [Compound 612] | < 10
